{"source": "ChEMBL document CHEMBL1201862", "about": "“PubChem BioAssay data set” (2004)", "target": "Envelope glycoprotein gp160 (Human immunodeficiency virus 1, UniProt Q6QLK5)", "sequence (Q6QLK5 whole entry, the tested form may be a part)": "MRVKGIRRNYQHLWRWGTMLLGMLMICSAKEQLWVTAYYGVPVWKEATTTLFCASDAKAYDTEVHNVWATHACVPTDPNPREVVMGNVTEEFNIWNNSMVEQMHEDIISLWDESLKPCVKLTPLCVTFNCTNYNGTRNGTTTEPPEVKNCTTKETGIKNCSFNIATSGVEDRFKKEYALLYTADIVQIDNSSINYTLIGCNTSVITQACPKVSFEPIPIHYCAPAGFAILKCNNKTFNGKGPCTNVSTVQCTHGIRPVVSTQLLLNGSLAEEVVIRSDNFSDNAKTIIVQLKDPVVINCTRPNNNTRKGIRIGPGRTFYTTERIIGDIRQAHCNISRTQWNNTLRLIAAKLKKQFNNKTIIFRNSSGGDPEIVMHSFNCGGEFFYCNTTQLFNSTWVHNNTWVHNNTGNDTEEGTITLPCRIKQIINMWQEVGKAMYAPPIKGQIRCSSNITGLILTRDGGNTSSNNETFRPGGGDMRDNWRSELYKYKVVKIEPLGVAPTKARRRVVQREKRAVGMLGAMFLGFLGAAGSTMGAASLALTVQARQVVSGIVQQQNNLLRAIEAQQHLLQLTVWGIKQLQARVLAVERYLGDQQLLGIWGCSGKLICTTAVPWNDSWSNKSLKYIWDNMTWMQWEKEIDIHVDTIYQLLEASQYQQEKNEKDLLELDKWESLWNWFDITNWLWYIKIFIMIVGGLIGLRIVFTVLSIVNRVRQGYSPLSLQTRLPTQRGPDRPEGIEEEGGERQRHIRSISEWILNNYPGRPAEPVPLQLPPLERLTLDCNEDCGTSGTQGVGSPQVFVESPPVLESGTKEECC", "assay": "inhibitors of HIV fusion peptide binding, primary screen, biochemical, uHTS, fluorescence dequenching (AID 1986)", "note": "The source made the active and inactive calls. Cut-off read from the data, not from the text of the source: actives have a measured IC50 and inactives only a lower limit."}
{"compound": "O=C(O)c1ccccc1-c1ccccc1C(=O)Nc1ccc(-c2nc3cc(Cl)ccc3o2)cc1", "values": [{"measurement": "IC50", "result": "24.4 µM (active)"}]}
{"compound": "COc1cc(/C=C2\\C(=N)N3N=C(S(C)(=O)=O)SC3=NC2=O)ccc1OC(=O)c1cccs1", "values": [{"measurement": "IC50", "result": "12.1 µM (active)"}]}
